The target of one data set is recombinant human PKM2 (Homo sapiens (Human), UniProt P14618). Nature of the data set: Human PKM2 activation assay (Kinase-Glo Plus luminescence). The format is biochemical. Particulars: for EC50: activation of recombinant human PKM2, 4-parameter logistic fit, read-out: hPKM2 EC50; for Emax: read-out: hPKM2 Emax (%). The method, then:
Compound activation of recombinant human PKM2 pyruvate kinase activity was determined by biochemical assay. N-terminal His-tagged hPKM2 was sourced from R&D Systems and its substrates phosphoenolpyruvate (PEP) and ADP from Sigma-Aldrich and 2BScientific Ltd, respectively. The Kinase-Glo® Plus luminescence assay was from Promega. All other reagents were from Sigma-Aldrich. Test Compounds were prepared as 10 mM DMSO stocks and dilution series prepared in DMSO for direct dilution into Assay Buffer comprising 50 mM imidazole, 50 mM KCl, 7 mM MgCl2, 0.01% Tween20, 0.05% BSA (pH 7.2).
Human PKM2 was diluted into Assay Buffer comprising 50 mM imidazole, 50 mM KCl, 7 mM MgCl2, 0.01% Tween20, 0.05% BSA (pH 7.2) to a final concentration of 5 pM. Enzyme-Assay Buffer mix was dispensed into a 384-well shallow-well white-walled plate (PerkinElmer) and Test Compounds added by acoustic dispense (Echo®, Labcyte Inc.).
After 60 minutes' incubation on an orbital shaker (300 rpm, 26° C.), enzyme activity was quantified by the luminescent detection of generated ATP. Kinase-Glo® Plus reagent was added to each well and the plates incubated for a further 15 minutes on an orbital shaker in the dark (300 rpm, 26° C.) before luminescence measurement on a plate reader (PHERAstar® FSX, BMG Labtech).
EC50 and Emax values were determined from 4-parameter logistic fits of compound concentration-response curves.

In the next data set the test system is A549 cells. Nature of the data set: A549 proliferation assay in low-serine medium (CellTiter-Glo). The format is cell-based. Particulars: Homo sapiens, 72 h, 3 days, low-serine medium (20 μM L-serine). The procedure:
The effect of compounds of Formula (I) on A549 cell proliferation in low-serine medium was assessed using a luminescence assay of viable cell number (CellTiter-Glo® 2.0, Promega) duplexed with a fluorescent cytotoxicity assessment (CellTox™ Green, Promega). Cell culture reagents were from ThermoFisher unless specified otherwise. Assay reagents were from Sigma-Aldrich unless specified otherwise. Test Compounds were prepared as 10 mM DMSO stocks and dilution series prepared in DMSO for direct dilution into culture medium.
Cells were passaged every 3-4 days at 80-90% confluence. The cell monolayer was washed twice with room-temperature Ca^2+/Mg-free PBS and 4 ml room-temperature trypsin-EDTA added to the flask. After 5 minutes' incubation (37° C., 5% CO2) to detach cells, trypsin was quenched with 13 ml warmed complete growth medium and the cells harvested and diluted to 2.4×10^4 cells/ml for dispensing into 384-well clear-bottom black-walled plates (600 cells/well).
Following overnight incubation, growth medium was aspirated from each well and the cells washed twice with Assay Medium comprising Basal Medium Eagle supplemented with 3% heat-inactivated dialysed FBS plus 2 mM L-glutamine plus 20 μM L-serine (Sigma-Aldrich). After aspiration of the final wash medium, Assay Medium containing Test Compound was added to each well. DMSO vehicle controls were included on each plate.
Cells were incubated for 3 days in a humidified incubator (37° C., 5% CO2) at which point CellTox™ Green and CellTiter-Glo® reagents were prepared according to the manufacturer's instructions. Triton-X was added to HIGH wells for cytotoxicity determination and the plate incubated for 30 minutes (20° C., ambient humidity and pCO2). CellTox™ Green reagent was added to each well and the plate covered, placed on an orbital shaker @450 rpm for 2 minutes, and incubated in the dark for 15 minutes (20° C., ambient humidity and pCO2). Endpoint fluorescence was measured using a plate reader (PHERAstar® FSX, BMG Labtech).
Following cytotoxicity determination, CellTiter-Glo® reagent was added to each well and the plate placed on an orbital shaker @450 rpm for 2 minutes to lyse cells. Plates were incubated in the dark for 15-30 minutes (20° C., ambient humidity and pCO2) prior to endpoint luminescence measurement (PHERAstar® FSX, BMG Labtech).
Proliferation was calculated by normalizing luminescence signals to LOW controls obtained from a parallel plate processed at the time of Test Compound challenge and HIGH (DMSO vehicle) wells from the compound plate. IC50 values were determined from a 4-parameter logistic fit of compound concentration-response curves.

A further data set has as its target recombinant human PKLR (Homo sapiens (Human), UniProt P30613). Briefly: Human PKLR activation assay (Kinase-Glo Plus luminescence). Particulars: for Emax: read-out: hPKLR Emax (%).
Data set [1] can be described thus: Kinetic aqueous solubility. Particulars: PBS pH 7.4, 200 μM (2% DMSO), RT; for solubility kinetic at 1.5 h: phosphate buffered saline (PBS) pH 7.4, pH 7.4, aqueous buffer, kinetic from dmso stock, Kinetic solubility (Ksol), (μg/ml).
Method: (§1) Phosphate buffered saline (PBS) pH 7.4 was prepared using PBS tablets as per the manufacturer's instructions. Compounds and marker stocks are prepared at 10 mM in DMSO.
(§2) Compounds were incubated at 200 μM (2% DMSO) in Millipore—MSS LB PC 10 or Porvair—ref: 36004 plates in the presence of the prepared PBS pH 7.4 solution for 1.5 h, at RT, with gentle shaking. […] The samples were then analysed in a 96 well UV Star analysis plate on a plate reader from 220 nm to 500 nm at 10 nm increments.
(§3) The concentration of the samples was calculated against the standard curves.
The conditions of data set [2]: pH 7.4.
Method: as §1, §2, §3

≈ marks a conversion by molar mass, not a printed value. Like-named read-outs stand apart in the source and are kept apart here. Marks after values point to notes of the source that are not given here.

Sequence of recombinant human PKM2 (P14618 whole entry): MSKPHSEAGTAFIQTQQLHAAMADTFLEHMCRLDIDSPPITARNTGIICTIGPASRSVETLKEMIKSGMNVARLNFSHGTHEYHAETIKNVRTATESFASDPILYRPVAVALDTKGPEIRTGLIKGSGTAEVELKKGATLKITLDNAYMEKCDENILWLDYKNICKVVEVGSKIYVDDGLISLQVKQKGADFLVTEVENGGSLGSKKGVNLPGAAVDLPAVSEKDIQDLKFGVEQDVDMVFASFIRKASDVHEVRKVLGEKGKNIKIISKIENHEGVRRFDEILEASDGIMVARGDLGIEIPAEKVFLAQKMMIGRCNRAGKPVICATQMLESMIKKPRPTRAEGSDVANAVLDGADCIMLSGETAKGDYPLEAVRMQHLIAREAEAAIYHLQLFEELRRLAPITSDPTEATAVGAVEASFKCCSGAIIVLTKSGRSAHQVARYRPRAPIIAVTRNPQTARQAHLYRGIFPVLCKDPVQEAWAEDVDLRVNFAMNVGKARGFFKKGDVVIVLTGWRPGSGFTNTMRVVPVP
Sequence of recombinant human PKLR (P30613 whole entry): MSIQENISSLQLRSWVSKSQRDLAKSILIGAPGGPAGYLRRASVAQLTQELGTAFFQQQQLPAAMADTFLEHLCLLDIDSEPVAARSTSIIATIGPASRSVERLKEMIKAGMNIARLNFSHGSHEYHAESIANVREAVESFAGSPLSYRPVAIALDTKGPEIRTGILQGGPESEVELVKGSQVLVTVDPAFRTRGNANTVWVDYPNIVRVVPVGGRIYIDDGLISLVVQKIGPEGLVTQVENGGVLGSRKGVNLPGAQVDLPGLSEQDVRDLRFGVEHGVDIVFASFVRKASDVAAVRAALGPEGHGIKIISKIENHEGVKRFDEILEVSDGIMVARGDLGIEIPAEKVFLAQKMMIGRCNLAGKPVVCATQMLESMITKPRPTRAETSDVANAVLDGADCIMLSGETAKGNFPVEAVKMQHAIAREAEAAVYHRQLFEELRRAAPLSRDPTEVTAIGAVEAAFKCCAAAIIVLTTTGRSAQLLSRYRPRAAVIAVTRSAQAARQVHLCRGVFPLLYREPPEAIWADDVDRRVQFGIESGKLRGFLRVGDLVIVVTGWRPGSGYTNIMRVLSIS
Method for recombinant human PKLR: Compound activation of recombinant human PKLR pyruvate kinase activity was determined by biochemical assay. N-terminal His-tagged enzyme was sourced from R&D Systems and its substrates phosphoenolpyruvate (PEP) and ADP from Sigma-Aldrich and 2BScientific Ltd, respectively. The Kinase-Glo® Plus luminescence assay was from Promega. All other reagents were from Sigma-Aldrich. Test Compounds were prepared as 10 mM DMSO stocks and dilution series prepared in DMSO for direct dilution into Assay Buffer comprising 50 mM imidazole, 50 mM KCl, 7 mM MgCl2, 0.01% Tween20, 0.05% BSA (pH 7.2).
Human PKLR was diluted into Assay Buffer to a final concentration of 5 pM. Enzyme-Assay Buffer mix was dispensed into 384-well shallow-well white-walled plates and Test Compounds added by acoustic dispense (Echo®, Labcyte Inc).

With `Cn1c2c(c3cnn(Cc4ccc5c(c4)CCO5)c(=O)c31)CCN(S(C)(=O)=O)C2` [Example 1, 3-((2,3-dihydrobenzofuran-5-yl)methyl)-5-methyl-7-(methylsulfonyl)-3,5,6,7,8,9-hexahydro-4H-pyrido[4′,3′:4,5]pyrrolo[2,3-d]pyridazin-4-one], at recombinant human PKM2, the EC50 was 180 nM and the Emax is 86.9%. In addition, half-maximal inhibition in the data set with A549 cells (IC50) required 1.6 nM. On recombinant human PKLR, the EC50 is 60 to 320 nM and the Emax is 90 to 100%. Also, the “Kinetic solubility (Ksol); (μg/ml)” value in data set [1] (1.5 h) is reported as 12.85* μg/ml. The compound further returned a solubility (kinetic) at 1.5 h in data set [1] of 13.9 µg/mL (≈ 33.5 µM).

Take `Cn1c2c(c3cnn(Cc4cccc(N)c4)c(=O)c31)CCN(S(=O)(=O)c1ccccc1)C2` [Example 11, 3-(3-aminobenzyl)-5-methyl-7-(phenylsulfonyl)-3,5,6,7,8,9-hexahydro-4H-pyrido[4′,3′:4,5]pyrrolo[2,3-d]pyridazin-4-one]: on recombinant human PKM2, the EC50 was 846 nM and the Emax turned out to be 88.4%. Also, in the data set on A549 cells, the IC50 was found to be 14 nM. At recombinant human PKLR, the EC50 is 60 to 320 nM and the Emax is below 90%. The solubility (kinetic) at 1.5 h in data set [1] was found to be 9.9 µg/mL (≈ 22 µM).

On to `Cn1c2c(c3cnn(Cc4cc[nH]n4)c(=O)c31)CCN(S(=O)(=O)c1ccccc1)C2` [Example 12, 3-((1H-pyrazol-3-yl)methyl)-5-methyl-7-(phenylsulfonyl)-3,5,6,7,8,9-hexahydro-4H-pyrido[4′,3′:4,5]pyrrolo[2,3-d]pyridazin-4-one], for which the EC50 at recombinant human PKM2 is 1490 nM; on recombinant human PKLR it was 60 to 320 nM. Besides, the values for the Emax on recombinant human PKM2 and at recombinant human PKLR were 79.7% and 100 to 117%, respectively. Besides, the IC50 with A549 cells is 13.5 nM. Moreover, the solubility (kinetic) at 1.5 h in data set [1] came out at 61.6 µg/mL (≈ 145 µM).

Take `Cn1c2c(c3cnn(Cc4cccc(N)c4)c(=O)c31)CCN(S(C)(=O)=O)C2` [Example 7, 3-(3-aminobenzyl)-5-methyl-7-(methylsulfonyl)-3,5,6,7,8,9-hexahydro-4H-pyrido[4′,3′:4,5]pyrrolo[2,3-d]pyridazin-4-one]: at recombinant human PKM2, the EC50 worked out at 346 nM and the Emax was determined as 107%. The same compound returned an IC50 in the data set on A549 cells of 0.9 nM. In addition, at recombinant human PKLR, the EC50 was 60 to 320 nM and the Emax was 100 to 117%. This compound had a kinetic solubility at 1.5 h in data set [1] of 72.2 µg/mL (≈ 186 µM).

For `Cc1ncc(S(=O)(=O)N2CCc3c(n(C)c4c(=O)n(Cc5cccc(N)c5)ncc34)C2)s1` [Example 10, 3-(3-aminobenzyl)-5-methyl-7-((2-methylthiazol-5-yl)sulfonyl)-3,5,6,7,8,9-hexahydro-4H-pyrido[4′,3′:4,5]pyrrolo[2,3-d]pyridazin-4-one], at recombinant human PKM2, the EC50 was determined as 4680 nM and the Emax is 72%. The same compound gave an IC50 with A549 cells of 117 nM. Besides, on recombinant human PKLR, the EC50 is above 320 nM and the Emax was 90 to 100%. Besides, the solubility (kinetic) at 1.5 h in data set [1] came to 17.1 µg/mL (≈ 36.4 µM).

For `COc1ccc(Cn2ncc3c4c(n(C)c3c2=O)CN(S(C)(=O)=O)CC4)cn1` [Example 2, 3-((6-methoxypyridin-3-yl)methyl)-5-methyl-7-(methylsulfonyl)-3,5,6,7,8,9-hexahydro-4H-pyrido[4′,3′:4,5]pyrrolo[2,3-d]pyridazin-4-one], the EC50 at recombinant human PKM2 was 306 nM; at recombinant human PKLR it was 60 to 320 nM. The Emax at recombinant human PKM2 was 93.7%; on recombinant human PKLR it was 100 to 117%. In the data set with A549 cells, the IC50 came out at 4.5 nM. In data set [1] (1.5 h), the “Kinetic solubility (Ksol);” value came out at 36.19 µg/mL. The compound also came in with a solubility (kinetic) at 1.5 h in data set [1] of 36.1 µg/mL (≈ 89.5 µM).

Regarding “(3-((1H-pyrrolo[2,3-c]pyridin-3-yl)methyl)-N-ethyl-5-methyl-4-oxo-5,6,8,9-tetrahydro-3H-pyrido[4′,3′:4,5]pyrrolo[2,3-d]pyridazine-7(4H)-sulfonamide [Example 30]”, the EC50 at recombinant human PKM2 turned out to be 83 nM. The “hPKM2 Emax (%)” value on recombinant human PKM2 (percentage activation normalised to DMSO vehicle (LOW) and 5 μM TEPP-46 (HIGH)) is 62.2%. The “Kinetic solubility (Ksol);” value in data set [2] worked out at 30.29 µg/mL.

On to `COc1cccc(Cn2ncc3c4c(n(C)c3c2=O)CN(S(C)(=O)=O)CC4)c1F` [Example 5, 3-(2-fluoro-3-methoxybenzyl)-5-methyl-7-(methylsulfonyl)-3,5,6,7,8,9-hexahydro-4H-pyrido[4′,3′:4,5]pyrrolo[2,3-d]pyridazin-4-one], for which, at recombinant human PKM2, the EC50 stood at 591 nM and the Emax stood at 96.7%. Further, in the data set with A549 cells, half-maximal inhibition (IC50) was put at 13.3 nM. For the same compound, on recombinant human PKLR, the EC50 is 60 to 320 nM and the Emax was below 90%. This compound also returned a kinetic solubility at 1.5 h in data set [1] of 5.13 µg/mL (≈ 12.2 µM).

The record behind these values is US20240409542A1, “NOVEL COMPOUNDS” (Sitryx Therapeutics Limited, priority 2021, published 2024).
